The results in this text go back to ChEMBL document CHEMBL1124905, “Synthesis of new (+-)-3,5-dihydroxypentyl nucleoside analogues from 1-amino-5-(benzyloxy)pentan-3-ol and their antiviral evaluation” (J Med Chem, 1990).

Structures are written as SMILES. Calls of active or inactive are those of the source. The rule behind the calls is not given here.

The test system of series [1] is Human immunodeficiency virus 1. In words: Antiviral activity against HIV-1 was determined; No inhibition. It counts as functional, organism-based.
The next series concerns Human betaherpesvirus 5. Put plainly: Antiviral activity against HCMV was determined; No inhibition. Type of series: functional, organism-based.
Another series has as its system MRC5. In words: Concentration required for cytotoxicity of MRC5 cell line was determined. It counts as functional, cell-based. To be noted: Homo sapiens.
Series [2] can be described thus: Compound tested for toxic activity at 100 ug/mL; Not toxic. Type of series: ADME.
In series [3] the test system is Human alphaherpesvirus 1. Put plainly: Compound tested for inhibition of theCPE (Cytopathic effect) of HSV-1 at 12.5 ug/mL. Type of series: functional, herpes simplex virus.
For series [4], the system named is Human alphaherpesvirus 1. Put plainly: Concentration required for suppression of the CPE (Cytopathic effect) of HSV-1. Type of series: functional, organism-based. The settings on record: herpes simplex virus.

On to `Nc1ncnc2c1ncn2CCOCP(=O)(O)O`, for which the inhibition result (in series [1]; with Human betaherpesvirus 5) was “inactive” in each case.
On to `Nc1nc(O)c2ncn(CCC(CO)CO)c2n1`, for which the inhibition entry (in series [1]; with Human betaherpesvirus 5) was “inactive” in each case.
With `Nc1ccn(CCC(O)CCO)c(=O)n1` (configuration not stated), the inhibition result (in series [1]; in the series on Human betaherpesvirus 5) was “inactive” in each case.
Take `Nc1ncnc2c1ncn2C[C@@H](CO)OCP(=O)(O)O`: the inhibition result (in series [1]; in the series on Human betaherpesvirus 5) was “inactive” in each case.
For `Nc1nc2c(ncn2CCCCO)c(=O)[nH]1`, the inhibition entry (in series [1]; in the series with Human betaherpesvirus 5) was “inactive” throughout.
`Nc1ncnc2c1ncn2C=C=CCO`: the inhibition result (in series [1]; with Human betaherpesvirus 5) was “inactive” each time.
Consider `Nc1ncnc2c1ncn2CCC(O)CCO` (configuration not stated), for which the inhibition entry (in series [1]; with Human betaherpesvirus 5) was “inactive” each time. The Concentration in the series on MRC5 came out at 25 µg/mL.
For `Nc1ncnc2c1ncn2C[C@H](O)CO`, the inhibition entry (in series [1]; in the series with Human betaherpesvirus 5) was “inactive” in each case.
Consider `Nc1nc2c(ncn2COCCO)c(=O)[nH]1`, for which the inhibition entry (in series [1]; with Human betaherpesvirus 5) was “inactive” each time.
As to `Nc1nc(O)c2ncn(CC[C@H](O)CCO)c2n1`, the inhibition entry (in series [1]; in the series with Human betaherpesvirus 5) was “inactive” each time. In series [2], the Toxicity result is reported as “Non-toxic”. The inhibition (usually the relative decrease from the control value, in per cent) at 12.5 µg/mL in the series on Human alphaherpesvirus 1 [3] worked out at 50%. The same molecule came in with a Concentration with Human alphaherpesvirus 1 [4] of 50 µg/mL.
Regarding `Cc1cn(CCC(O)CCO)c(=O)[nH]c1=O` (configuration not stated), the inhibition entry (in series [1]; in the series with Human betaherpesvirus 5) was “inactive” throughout.
For the molecule `Nc1nc(O)c2ncn(CC(CO)CCO)c2n1` (configuration not stated), the inhibition result (in series [1]; with Human betaherpesvirus 5) was “inactive” throughout.
Turning to `Nc1nc2c(ncn2CC[C@@H](O)CO)c(=O)[nH]1`, the inhibition entry (in series [1]; in the series on Human betaherpesvirus 5) was “inactive” throughout.
`Nc1nc2c(ncn2COC(CO)CO)c(=O)[nH]1`: the NA entry (in series [1]; with Human betaherpesvirus 5) was “inactive” in each case.
